The source of these data is patent US9216173B2, “2-Pyridyl carboxamide-containing spleen tyrosine kinase (SYK) inhibitors” (Merck Sharp & Dohme Corp., priority 2011, dated 2015).

One assay has as its target T1, recombinant human GST-SYK (Homo sapiens, UniProt P43405).
T1 construct: purchased Carna Biosciences 08-176
The experiment in a line: Homogeneous Time-Resolved Fluorescence (HTRF) assay for the recombinant human Syk enzyme. The format is biochemical. The note with it: GST-hSYK 5 pM, ATP 25 μM, 10-dose titration 10 μM to 0.508 nM; read-out: IC50. A digest of the protocol:
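GST-hSYK fusion phosphorylates a peptide for 45 min at room temperature. Quenched with EDTA buffer containing 2 nM Eu-anti-phosphotyrosine antibody and 70 nM SA-APC. HTRF signal read after 30 min.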
A general note: TR-FRET usually uses a lanthanide donor and a delayed reading to cut background.
The term IC50 denotes the concentration that gives 50% inhibition. As for `Cc1nc(Nc2cc(N[C@@H]3CCCC[C@@H]3N)cnc2C(N)=O)ccc1-c1ccccc1` [Example 3.2, 5-{[(1R,2S)-2-aminocyclohexyl]amino}-3-[(6-methyl-5-phenylpyridin-2-yl)amino]pyridine-2-carboxamide], the IC50 is 3.9 nM.

Still in this assay, the particulars now being: GST-hSYK 5 pM, ATP 25 μM, 10-dose titration 10 μM to 0.508 nM; read-out: rhSYK Activity (IC50 rating).
`Cc1cc(C)nc(Nc2cc(NCC(N)C(F)F)cnc2C(N)=O)c1` (stereo not shown) [Example 2.4, 5-[(2-amino-3,3-difluoropropyl)amino]-3-[(4,6-dimethylpyridin-2-yl)amino]pyridine-2-carboxamide]: the concentration for half-maximal inhibition (IC50) was 10 to 100 nM.

Take `Cc1cc(C)nc(Nc2cc(N[C@@H]3[C@H](N)CCCC3(F)F)cnc2C(N)=O)c1` [Example 2.5, 5-{[(1R,6R)-6-amino-2,2-difluorocyclohexyl]amino}-3-[(4,6-dimethylpyridin-2-yl)amino]pyridine-2-carboxamide]: the IC50 is under 10 nM.

Regarding `CSCC(N)CNc1cnc(C(N)=O)c(Nc2cc(C)cc(C)n2)c1` (stereo not shown) [Example 2.8, 5-{[2-amino-3-(methylsulfanyl)propyl]amino}-3-[(4,6-dimethylpyridin-2-yl)amino]pyridine-2-carboxamide], the IC50 is under 10 nM.

`Cc1cc(C)nc(Nc2cc(NCC(N)C(=O)N(C)C)cnc2C(N)=O)c1` (stereo not shown) [Example 2.9, 5-{[2-amino-3-(dimethylamino)-3-oxopropyl]amino}-3-[(4,6-dimethylpyridin-2-yl)amino]pyridine-2-carboxamide]: the IC50 was in the range of 100 to 1000 nM.

In the case of `Cc1cc(C)nc(Nc2cc(NC3CCNCC3)cnc2C(N)=O)c1` [Example 2.10, 3-[(4,6-dimethylpyridin-2-yl)amino]-5-(piperidin-4-ylamino)pyridine-2-carboxamide], the IC50 was in the range of 100 to 1000 nM.

As to `Cc1cc(C)nc(Nc2cc(NCC(N)Cc3ccccc3)cnc2C(N)=O)c1` (stereo not shown) [Example 2.12, 5-[(2-amino-3-phenylpropyl)amino]-3-[(4,6-dimethylpyridin-2-yl)amino]pyridine-2-carboxamide], the IC50 lay in the range of 10 to 100 nM.

For `Cc1cc(C)nc(Nc2cc(NCC(N)CO)cnc2C(N)=O)c1` (stereo not shown) [Example 2.14, 5-[(2-amino-3-hydroxypropyl)amino]-3-[(4,6-dimethylpyridin-2-yl)amino]pyridine-2-carboxamide], the IC50 is 10 to 100 nM.

Consider `Cc1cc(C)nc(Nc2cc(NC3CC(N)C3)cnc2C(N)=O)c1` (stereo not shown) [Example 2.15, 5-[(3-aminocyclobutyl)amino]-3-[(4,6-dimethylpyridin-2-yl)amino]pyridine-2-carboxamide], for which the IC50 lay within 10 to 100 nM.

On to `Cc1nc(Nc2cc(N[C@@H]3CCCC[C@@H]3N)cnc2C(N)=O)ccc1-c1cccc(C(O)C(F)F)c1` (stereo partly drawn) [Example 3.1, 5-{[(1R,2S)-2-aminocyclohexyl]amino}-3-({5-[3-(2,2-difluoro-1-hydroxyethyl)phenyl]-6-methylpyridin-2-yl}amino)pyridine-2-carboxamide], for which the IC50 is under 10 nM.

In the case of `Cc1nc(Nc2cc(N[C@@H]3CCCC[C@@H]3N)cnc2C(N)=O)ccc1-c1ccccc1` [Example 3.2, 5-{[(1R,2S)-2-aminocyclohexyl]amino}-3-[(6-methyl-5-phenylpyridin-2-yl)amino]pyridine-2-carboxamide], the IC50 was under 10 nM.

On to `Cc1nc(Nc2cc(N[C@@H]3CCCC[C@@H]3N)cnc2C(N)=O)ccc1-c1cccc([N+](=O)[O-])c1` [Example 3.3, 5-{[(1R,2S)-2-aminocyclohexyl]amino}-3-{[6-methyl-5-(3-nitrophenyl)pyridin-2-yl]amino}pyridine-2-carboxamide], for which the concentration for half-maximal inhibition (IC50) is under 10 nM.

Regarding `COc1ccc(-c2ccc(Nc3cc(N[C@@H]4CCCC[C@@H]4N)cnc3C(N)=O)nc2C)cc1OC` [Example 3.4, 5-{[(1R,2S)-2-aminocyclohexyl]amino}-3-{[5-(3,4-dimethoxyphenyl)-6-methylpyridin-2-yl]amino}pyridine-2-carboxamide], the IC50 is under 10 nM.

In the case of `Cc1nc(Nc2cc(N[C@@H]3CCCC[C@@H]3N)cnc2C(N)=O)ccc1-c1ccc(C(=O)O)cc1` [Example 3.5, 4-{6-[(5-{[(1R,2S)-2-aminocyclohexyl]amino}-2-carbamoylpyridin-3-yl)amino]-2-methylpyridin-3-yl}benzoic acid], the IC50 is under 10 nM.

With `Cc1nc(Nc2cc(N[C@@H]3CCCC[C@@H]3N)cnc2C(N)=O)ccc1-c1cccc(C(=O)O)c1` [Example 3.6, 3-{6-[(5-{[(1R,2S)-2-aminocyclohexyl]amino}-2-carbamoylpyridin-3-yl)amino]-2-methylpyridin-3-yl}benzoic acid], the concentration for half-maximal inhibition (IC50) is under 10 nM.

As to `Cc1nc(Nc2cc(N[C@@H]3CCCC[C@@H]3N)cnc2C(N)=O)ccc1-c1ccc(CO)cc1` [Example 3.7, 5-{[(1R,2S)-2-aminocyclohexyl]amino}-3-({5-[4-(hydroxymethyl)phenyl]-6-methylpyridin-2-yl}amino)pyridine-2-carboxamide], the IC50 is under 10 nM.

As for `Cc1nc(Nc2cc(N[C@@H]3CCCC[C@@H]3N)cnc2C(N)=O)ccc1-c1ccc(C(O)C(F)F)cc1` (stereo partly drawn) [Example 3.8, 5-{[(1R,2S)-2-aminocyclohexyl]amino}-3-({5-[4-(2,2-difluoro-1-hydroxyethyl)phenyl]-6-methylpyridin-2-yl}amino)pyridine-2-carboxamide], the half-inhibitory concentration (IC50) was under 10 nM.

In the case of `Cc1nc(Nc2cc(N[C@@H]3CCCC[C@@H]3N)cnc2C(N)=O)ccc1-c1ccc2nnn(C)c2c1` [Example 3.9, 5-{[(1R,2S)-2-aminocyclohexyl]amino}-3-{[6-methyl-5-(1-methyl-1H-benzotriazol-6-yl)pyridin-2-yl]amino}pyridine-2-carboxamide], the IC50 is under 10 nM.

For `Cc1nc(Nc2cc(N[C@@H]3CCCC[C@@H]3N)cnc2C(N)=O)ccc1-c1ccc(OC(F)F)cc1` [Example 3.10, 5-{[(1R,2S)-2-aminocyclohexyl]amino}-3-({5-[4-(difluoromethoxy)phenyl]-6-methylpyridin-2-yl}amino)pyridine-2-carboxamide], the IC50 is under 10 nM.

`Cc1nc(Nc2cc(N[C@@H]3CCCC[C@@H]3N)cnc2C(N)=O)ccc1-c1cccc(C(O)C(F)(F)F)c1` (stereo partly drawn) [Example 3.11, 5-{[(1R,2S)-2-aminocyclohexyl]amino}-3-({6-methyl-5-[3-(2,2,2-trifluoro-1-hydroxyethyl)phenyl]pyridin-2-yl}amino)pyridine-2-carboxamide]: the IC50 was under 10 nM.

For the compound `Cc1nc(Nc2cc(N[C@@H]3CCCC[C@@H]3N)cnc2C(N)=O)ccc1-c1cccc2c1CNC2=O` [Example 3.12, 5-{[(1R,2S)-2-aminocyclohexyl]amino}-3-{[6-methyl-5-(1-oxo-2,3-dihydro-1H-isoindol-4-yl)pyridin-2-yl]amino}pyridine-2-carboxamide], the IC50 is under 10 nM.

Consider `Cc1nc(Nc2cc(N[C@@H]3CCCC[C@@H]3N)cnc2C(N)=O)ccc1-c1ccc(N2CCN(C)CC2)cc1` [Example 3.13, 5-{[(1R,2S)-2-aminocyclohexyl]amino}-3-({6-methyl-5-[4-(4-methylpiperazin-1-yl)phenyl]pyridin-2-yl}amino)pyridine-2-carboxamide], for which the IC50 is under 10 nM.

As to `Cc1nc(Nc2cc(N[C@@H]3CCCC[C@@H]3N)cnc2C(N)=O)ccc1-c1cccc(N2CCN(C)CC2)c1` [Example 3.14, 5-{[(1R,2S)-2-aminocyclohexyl]amino}-3-({6-methyl-5-[3-(4-methylpiperazin-1-yl)phenyl]pyridin-2-yl}amino)pyridine-2-carboxamide], the IC50 is under 10 nM.

Turning to `Cc1nc(Nc2cc(N[C@@H]3CCCC[C@@H]3N)cnc2C(N)=O)ccc1-c1ccc(-n2nccn2)cc1` [Example 3.15, 5-{[(1R,2S)-2-aminocyclohexyl]amino}-3-({6-methyl-5-[4-(2H-1,2,3-triazol-2-yl)phenyl]pyridin-2-yl}amino)pyridine-2-carboxamide], the IC50 was under 10 nM.

As for `Cc1nc(Nc2cc(N[C@@H]3CCCC[C@@H]3N)cnc2C(N)=O)ccc1-c1ccc2c(c1)C(=O)NC2` [Example 3.16, 5-{[(1R,2S)-2-aminocyclohexyl]amino}-3-{[6-methyl-5-(3-oxo-2,3-dihydro-1H-isoindol-5-yl)pyridin-2-yl]amino}pyridine-2-carboxamide], the IC50 is under 10 nM.

`Cc1nc(Nc2cc(N[C@@H]3CCCC[C@@H]3N)cnc2C(N)=O)ccc1-c1ccc2c(c1)CNC2=O` [Example 3.17, 5-{[(1R,2S)-2-aminocyclohexyl]amino}-3-{[6-methyl-5-(1-oxo-2,3-dihydro-1H-isoindol-5-yl)pyridin-2-yl]amino}pyridine-2-carboxamide]: the IC50 is under 10 nM.

As for `Cc1nc(Nc2cc(N[C@@H]3CCCC[C@@H]3N)cnc2C(N)=O)ccc1-c1ccc2c(cnn2C)c1` [Example 3.18, 5-{[(1R,2S)-2-aminocyclohexyl]amino}-3-{[6-methyl-5-(1-methyl-1H-indazol-5-yl)pyridin-2-yl]amino}pyridine-2-carboxamide], the IC50 was under 10 nM.

`Cc1nc(Nc2cc(N[C@@H]3CCCC[C@@H]3N)cnc2C(N)=O)ccc1-c1cccc(N(C)S(C)(=O)=O)c1` [Example 3.19, 5-{[(1R,2S)-2-aminocyclohexyl]amino}-3-[(6-methyl-5-{3-[methyl(methylsulfonyl)amino]phenyl}pyridin-2-yl)amino]pyridine-2-carboxamide]: the concentration for half-maximal inhibition (IC50) is under 10 nM.

`Cc1nc(Nc2cc(N[C@@H]3CCCC[C@@H]3N)cnc2C(N)=O)ccc1-c1cccc(-n2nccn2)c1` [Example 3.20, 5-{[(1R,2S)-2-aminocyclohexyl]amino}-3-({6-methyl-5-[3-(2H-1,2,3-triazol-2-yl)phenyl]pyridin-2-yl}amino)pyridine-2-carboxamide]: the half-inhibitory concentration (IC50) was under 10 nM.

Turning to `Cc1nc(Nc2cc(N[C@@H]3CCCC[C@@H]3N)cnc2C(N)=O)ccc1-c1ccc2c(=O)nc[nH]c2c1` [Example 3.21, 5-{[(1R,2S)-2-aminocyclohexyl]amino}-3-{[6-methyl-5-(4-oxo-1,4-dihydroquinazolin-7-yl)pyridin-2-yl]amino}pyridine-2-carboxamide], the IC50 is under 10 nM.

With `COc1ccc(-c2ccc(Nc3cc(N[C@@H]4CCCC[C@@H]4N)cnc3C(N)=O)nc2C)cn1` [Example 3.22, 5-{[(1R,2S)-2-aminocyclohexyl]amino}-3-[(6′-methoxy-2-methyl-3,3′-bipyridin-6-yl)amino]pyridine-2-carboxamide], the IC50 is under 10 nM.
